Results reported in ChEMBL document CHEMBL4811265, “Structural understanding of 5-(4-hydroxy-phenyl)-N-(2-(5-methoxy-1H-indol-3-yl)-ethyl)-3-oxopentanamide as a neuroprotectant for Alzheimer's disease” (Bioorg Med Chem Lett, 2021).

Experiment: Neuroprotective activity in human MC65 cells cultured in TC-deficient medium assessed as inhibition of TC-deficiency induced cell death by measuring increase in cell viability measured after 72 hrs by MTT assay
Assay type: functional, cell-based
Conditions: MC65, 72 h

Compound: COc1ccc2[nH]cc(CCNC(=O)CC(=O)CCc3ccc(O)cc3)c2c1
- EC50: 32.6 nM

Compound: O=C(/C=C/c1ccc(O)cc1)CC(=O)NCCc1c[nH]c2ccc(O)cc12
- EC50: 178 nM

Compound: COc1ccc2[nH]cc(CCNC(=O)CC(=O)CCc3ccc(F)cc3)c2c1
- EC50: 33 nM

Compound: C#CCOc1ccc2[nH]cc(CCNC(=O)CC(=O)CCc3ccc(O)cc3)c2c1
- EC50: 32 nM

Compound: COc1ccc2[nH]cc(CCNC(=O)CC(=O)/C=C/c3ccc4c(c3)OCO4)c2c1
- EC50: > 3000 nM

Compound: COc1ccc2[nH]cc(CCNC(=O)CC(=O)/C=C/c3ccncc3)c2c1
- EC50: > 3000 nM

Compound: C#CCOc1ccc2[nH]cc(CCNC(=O)CC3(CCc4ccc(O)cc4)N=N3)c2c1
- EC50: 26.1 nM

Compound: COc1ccc2[nH]cc(CCNC(=O)CC3(CCc4ccc(O)cc4)N=N3)c2c1
- EC50: 56.2 nM

Compound: COc1ccc(CCC(=O)CC(=O)NCCc2c[nH]c3ccc(OC)cc23)cc1
- EC50: 490 nM

Compound: [N-]=[N+]=Nc1ccc2[nH]cc(CCNC(=O)CC(=O)CCc3ccc(O)cc3)c2c1
- EC50: 16.5 nM

Compound: COc1ccc2[nH]cc(CCNC(=O)CC(=O)/C=C/c3ccco3)c2c1
- EC50: 228 nM

Compound: Nc1ccc2[nH]cc(CCNC(=O)CC(=O)CCc3ccc(O)cc3)c2c1
- EC50: > 3000 nM

Compound: COc1ccc2[nH]cc(CCNC(=O)CC(=O)/C=C/c3ccoc3)c2c1
- EC50: 336 nM

Compound: COc1ccc2[nH]cc(CCNC(=O)CC(=O)/C=C/c3ccc(N(C)C)cc3)c2c1
- EC50: 976 nM

Compound: O=C(CCc1ccc(O)cc1)CC(=O)NCCc1c[nH]c2ccc([N+](=O)[O-])cc12
- EC50: 500 nM

Compound: O=C(CCc1ccc(O)cc1)CC(=O)NCCc1c[nH]c2ccc(O)cc12
- EC50: 364 nM

Compound: COc1ccc2[nH]cc(CCNC(=O)CC(=O)/C=C/c3cccnc3)c2c1
- EC50: > 3000 nM

Compound: COc1ccc2[nH]cc(CCNC(=O)CC(=O)/C=C/c3ccc(O)cc3)c2c1
- EC50: 29 nM

Compound: COc1ccc(CCC2(CC(=O)NCCc3c[nH]c4ccc(OC)cc34)N=N2)cc1
- EC50: > 3000 nM

Compound: COc1ccc2[nH]cc(CCNC(=O)CC(=O)/C=C/c3ccc(F)cc3)c2c1
- EC50: 32.8 nM

Compound: COc1ccc2[nH]cc(CCNC(=O)C3CCC/C(=C\c4ccc(O)cc4)C3=O)c2c1 (racemic)
- EC50: 224 nM

Compound: COc1ccc2[nH]cc(CCNC(=O)C3CC/C(=C\c4ccc(O)cc4)C3=O)c2c1 (racemic)
- EC50: 127 nM

Compound: O=C(CC(O)CCc1ccc(O)cc1)NCCc1c[nH]c2ccc(O)cc12 (racemic)
- EC50: 9.2 nM

Compound: COc1ccc2[nH]cc(CCNC(=O)C3CCC(Cc4ccc(O)cc4)C3=O)c2c1 (racemic)
- EC50: > 3000 nM

Compound: COc1ccc2[nH]cc(CCNC(=O)C3CCCC(Cc4ccc(O)cc4)C3=O)c2c1 (racemic)
- EC50: > 3000 nM
